The values below come from patent US6906170B1 (Yeda Research and Development Co. Ltd., priority 1998, dated 2005).

Assay [1] relates to HT-29 cells. The assay is described as follows: Spontaneous IL-8 secretion from intestinal epithelial cells (ELISA). It is filed as cell-based, human. Also noted: IL-8 secretion Average O.D.: scale not given here. The note with it: peptide 1 nM, 24 h at 37° C.; for IL-8 secretion Average O.D.: ELISA O.D. at 405 nm, medium alone 488 ± 8.5, background 71 ± 1.4; for IL-8 secretion % inhibition: spontaneous secretion. On the procedure: Human colonic epithelial cell lines HT-29 (ATCC HTB38) and Caco-2 (ATCC […]) were obtained from the American Type Culture Collection (ATTC, Rockville, Md.). Cells were maintained in culture medium (DMEM supplemented with 10% cosmic calf serum (CSS), 2 mM glutamine, 100 U/ml penicillin, and 0.1 mg/ml streptomycin), at 37° C. and atmosphere of 5%, CO2. Cell viability was assessed using the standard MTT method.
Spontaneous or cytokine-induced secretion of IL-8 or IL-1β from intestinal epithelial cell. Test cells (HT-29 or Caco-2) were grown as confluent monolayers in 24-well tissue culture plates. […] When TNF-α was used, the peptides were added to the cells 1 hour prior to the addition of TNF-α. Following culture, the supernatants were harvested and analyzed for IL-8 or IL-1β secretion by ELISA using commercially available kits for IL-8 (Pharmingen) and IL-1β (Genzyme), according to the manufacturers' protocols.
The results in Table 1 show the O.D. readings of the ELISA assay (at 405 nm) as well as the percentage of inhibition of IL-8 secretion.
A general note: In an ELISA, binding on a coated surface is turned into a signal by an enzyme label.

Assay [2] relates to human T cells. The assay is described as follows: IL-2-induced T cell adhesion to fibronectin (FN). The note with it: IL-2 10 U/ml, 30 min at 37° C., dose range. The assay is classed as cell-based. On the procedure: T cell adhesion assays. Human T cells were purified from the peripheral blood of healthy donors, and T cell adhesion to immobilized protein substrates was examined as follows: Human leukocytes were isolated on a Ficoll gradient, washed, and incubated (2 h, 37° C., 7.5% CO2, humidified atmosphere) on petri dishes. The non-adherent cells were then collected and incubated (1 h, 37° C., 7.5% CO2, humidified atmosphere) on nylon wool columns (Novamed Ltd., Jerusalem, Israel). Unbound cells were eluted from the columns by extensive washings. The resulting cell population was always >92% T cells. […] After 4-6 h at 37° C., the wells were washed and ^51[Cr]-labeled T cells were added to the wells, 10^5 cells/100 μl of adhesion medium (RPMI-1640 supplemented with 0.1% BSA, 1% sodium pyruvate, 1% HEPES buffer). The microtiter plates containing the cells were incubated (30 min, 37° C.) in a humidified, 7.5% CO2 atmosphere, and then washed. The adherent cells were lysed, and the resulting supernatants were removed and analyzed in a γ-counter. For each experimental group, the results were expressed as the mean percentage ±SD of bound T cells from quadruplicate wells.
The effect of synthetic peptides, with putative amino acid compositions corresponding to fractions 2 and 8, on IL-2-induced T cell adhesion to FN. […] These three peptides were synthesized, and their effects on IL-2-induced T cell adhesion to FN were studied. […] The inhibitory dose-response curves of Ile-Val-Leu and […](SEQ ID NO:1) are similar to those of the HPLC fractions 2 and 8, respectively, from which they were derived. […]

No end group written: not given here.

For AFLNRWIT [pep22], in assay [1], the “IL-8 secretion Average O.D.” value amounted to 158 ± 4.2 and the “IL-8 secretion % inhibition” value worked out at 79%.

As to ATIVEFLNRWIT [pep17], in assay [1], the “IL-8 secretion Average O.D.” value is listed as 150 ± 6.4 and the “IL-8 secretion % inhibition” value is 81%.

With Ala-Met-Leu-Thr (AMLT) [pep36], in assay [1], the “IL-8 secretion Average O.D.” value is given as 201 ± 17.7 and the “IL-8 secretion % inhibition” value amounted to 69%.

Turning to Ala-Val-Leu [pep7], in assay [1], the “IL-8 secretion Average O.D.” value is reported as 170 ± 8.5 and the “IL-8 secretion % inhibition” value came out at 76%.

As to Arg-Ala-Leu-Thr (RALT) [pep37], in assay [1], the “IL-8 secretion Average O.D.” value is 222 ± 24.0 and the “IL-8 secretion % inhibition” value is 64%.

Regarding Arg-Met-Ala-Thr (RMAT) [pep38], in assay [1], the “IL-8 secretion Average O.D.” value was 157 ± 1.4 and the “IL-8 secretion % inhibition” value is reported as 79%.

Regarding Arg-Met-Leu-Ala (RMLA) [pep39], in assay [1], the “IL-8 secretion Average O.D.” value worked out at 160 ± 21.9 and the “IL-8 secretion % inhibition” value was 79%.

On to Arg-Met-Leu-Thr-NH2 (RMLT-NH2) [pep42], for which, in assay [1], the “IL-8 secretion Average O.D.” value was 226 ± 28.3 and the “IL-8 secretion % inhibition” value stood at 63%.

Arg-Trp-Ile-Thr [pep20]: in assay [1], the “IL-8 secretion Average O.D.” value amounted to 191 ± 4.9 and the “IL-8 secretion % inhibition” value turned out to be 71%.

Regarding Arg-Val-Leu-Thr (RVLT) [pep41], in assay [1], the “IL-8 secretion Average O.D.” value was 132 ± 17.0 and the “IL-8 secretion % inhibition” value was 85%.

On to Asn-Val-Ile-Val-Leu (NVIVL) [pep6], for which, in assay [1], the “IL-8 secretion Average O.D.” value is given as 100 ± 14.8 and the “IL-8 secretion % inhibition” value is given as 93%.

For the substance EALNRWIT [pep24], in assay [1], the “IL-8 secretion Average O.D.” value is given as 187 ± 16.3 and the “IL-8 secretion % inhibition” value was 72%.

For the substance EFANRWIT [pep26], in assay [1], the “IL-8 secretion Average O.D.” value is 156 ± 27.6 and the “IL-8 secretion % inhibition” value was 80%.

As for EFLARWIT [pep27], in assay [1], the “IL-8 secretion Average O.D.” value was 309 ± 18.4 and the “IL-8 secretion % inhibition” value stood at 43%.

As for EFLNAWIT [pep28], in assay [1], the “IL-8 secretion Average O.D.” value stood at 120 ± 8.5 and the “IL-8 secretion % inhibition” value was 88%.

Turning to EFLNEWIT [pep29], in assay [1], the “IL-8 secretion Average O.D.” value stood at 139 ± 19.8 and the “IL-8 secretion % inhibition” value worked out at 84%.

EFLNRAIT [pep30]: in assay [1], the “IL-8 secretion Average O.D.” value is 123 ± 9.2 and the “IL-8 secretion % inhibition” value turned out to be 88%.

Consider EFLNRWAT [pep31], for which, in assay [1], the “IL-8 secretion Average O.D.” value is 112 ± 18.4 and the “IL-8 secretion % inhibition” value amounted to 90%.

In the case of EFLNRWIA [pep32], in assay [1], the “IL-8 secretion Average O.D.” value was 80 ± 24.0 and the “IL-8 secretion % inhibition” value worked out at 98%.

Regarding EFLNRWITFC [pep16], in assay [1], the “IL-8 secretion Average O.D.” value is reported as 126 ± 7.1 and the “IL-8 secretion % inhibition” value was found to be 87%.

With EFLNRWITFCQS [pep18], in assay [1], the “IL-8 secretion Average O.D.” value was 162 ± 12.0 and the “IL-8 secretion % inhibition” value was determined as 78%.

On to EVLNRWIT [pep25], for which, in assay [1], the “IL-8 secretion Average O.D.” value turned out to be 172 ± 2.8 and the “IL-8 secretion % inhibition” value is reported as 76%.

Glu-Phe-Leu-Asn [pep21]: in assay [1], the “IL-8 secretion Average O.D.” value was 195 ± 14.1 and the “IL-8 secretion % inhibition” value turned out to be 70%.

With “Glu-Phe-Leu-Asn-Arg-Trp-Ile-Thr-NH2 (EFLNRWIT-NH2) [pep33]”, in assay [1], the “IL-8 secretion Average O.D.” value is 73 ± 5.7 and the “IL-8 secretion % inhibition” value was 100%.

Glu-Val-Leu [pep10]: in assay [1], the “IL-8 secretion Average O.D.” value is listed as 125 ± 19.1 and the “IL-8 secretion % inhibition” value is 87%.

As for IVEFLNRWIT [pep15], in assay [1], the “IL-8 secretion Average O.D.” value was 33 ± 0.7 and the “IL-8 secretion % inhibition” value amounted to 109%.

IVLELKG [pep5]: in assay [1], the “IL-8 secretion Average O.D.” value was 35 ± 0.7 and the “IL-8 secretion % inhibition” value was determined as 109%.

With Ile-Ala-Leu [pep8], in assay [1], the “IL-8 secretion Average O.D.” value turned out to be 35 ± 4.9 and the “IL-8 secretion % inhibition” value came to 109%.

For the substance Ile-Val-Ala [pep9], in assay [1], the “IL-8 secretion Average O.D.” value worked out at 100 ± 9.9 and the “IL-8 secretion % inhibition” value stood at 93%.

As to KFLNRWIT [pep23], in assay [1], the “IL-8 secretion Average O.D.” value is on record as 36 ± 14.1 and the “IL-8 secretion % inhibition” value worked out at 108%.

For LNRWIT [pep19], in assay [1], the “IL-8 secretion Average O.D.” value is given as 152 ± 30.4 and the “IL-8 secretion % inhibition” value is 81%.

In the case of Leu-Val-Ile [reference compound], in assay [2], the “inhibition of adhesion of IL-2-activated T cells to FN” value (“inhibition of adhesion … to FN” below) is given as “none of these peptides, tested in a broad range of dosages, interfere with T cell adhesion”.

Take Lys-Met-Leu-Thr (KMLT) [pep40]: in assay [1], the “IL-8 secretion Average O.D.” value was found to be 179 ± 17.7 and the “IL-8 secretion % inhibition” value is reported as 74%.

As to NINVIVL [pep4], in assay [1], the “IL-8 secretion Average O.D.” value turned out to be 34 ± 3.5 and the “IL-8 secretion % inhibition” value was determined as 109%.

As to PKLTRMLT [pep43], in assay [1], the “IL-8 secretion Average O.D.” value was 57 ± 12.7 and the “IL-8 secretion % inhibition” value was found to be 103%.

With RMLTFKFY [pep44], in assay [1], the “IL-8 secretion Average O.D.” value stood at 307 ± 29.7 and the “IL-8 secretion % inhibition” value is 43%.

On to TIWRNLFE [reference compound], for which the “inhibition of adhesion … to FN” value in assay [2] is on record as “none of these peptides, tested in a broad range of dosages, interfere with T cell adhesion”.

Turning to “Thr-Leu-Met-Arg (TLMR) [reference compound]”, the “inhibition of adhesion … to FN” value in assay [2] was “none of these peptides, tested in a broad range of dosages, interfere with T cell adhesion”.
